# Results published in article PMC11317148, “DNA-controlled protein fluorescence: Design of aptamer-split peptide hetero-modulator for GFP to respond to intracellular ATP levels” (Nucleic Acids Research, 2024).
# Assays:
# [1] = test system: tripartite split-GFP (ipGFP1-9); assay: ATP-mediated in vitro reconstitution of tripartite split-GFP (ssAPC + ipGFP1-9), fluorescence time course; format: biochemical; settings: 10 mM of each nucleotide, 12 h incubation
# Protocol: We prepared a 50 μL mixture containing 1 μM aptamer-peptide complex and 20 μM ipGFP1-9 in ATP binding buffer (ATPBB; 20 mM Tris, 300 mM NaCl and 5 mM MgCl2, pH 7.4). These mixtures were transferred to a 384-well black microplate (Greiner Bio One, Kremsmünster, Austria) and challenged with various concentrations of ATP (2–10 mM). Fluorescence intensities were measured over a time course of 20 h at 5 min intervals using the extended mode of Cytation 7 (BioTek, Winooski, VT, USA) with excitation/emission wavelengths of 488/525 nm.
# To assess the functionality of the aptamer-split peptide conjugate for GFP function modulation, we performed a time-course in vitro reconstitution assay with ssAPC and split GFP1-9 in the presence of varying concentrations of ATP (Figure 2A). Our group previously reported an in vitro reconstitution application using intein-mediated purified split GFP1-9 (ipGFP1-9) with improved solubility and expression levels to provide evidence of compatibility for application in this study ([28]). […] In the absence of ATP, we observed a modest background signal that could yield a false-positive result at earlier time-points (Figure 2A, dark gray trace), although this could readily be distinguished as a negative result relative to ATP-containing samples at later time-points. […] As aforementioned, according to Kang et al., the performance of this ATP aptamer has been proven by measuring EC50 values in terms of ATP-induced structure-switching with different lengths of antisense DNAs (11–18 nt) ([27]).
# We also verified the specificity of our system towards ATP as a trigger molecule by assessing its response to other nucleotides such as UTP, GTP and CTP under identical conditions. To validate the low false-positive rate of self-assembly or non-specific binding, we compared the recovered fluorescence intensities after 12 h of incubation with 10 mM of each nucleotide.
# We subsequently evaluated the performance of our system in the context of sustained responsiveness to environmental ATP changes. We conducted an experiment in which we measured fluorescence intensity over time while adding extra ATP in 2 mM increments every 120 min, up to a final concentration of 10 mM.
# To verify that the fluorescence signal resulted from ATP-induced structure-switching, we performed experiments with the aptamer-modulated split GFP, in which we included an inhibitory strand that was fully complementary to the ATP aptamer sequence. We first performed an assembly reaction with the ssAPC, ipGFP1-9, and ATP for 12 h to generate a strong fluorescent signal, after which we added the inhibitory strand at varying molar ratios relative to the ssAPC ranging from 1:5 to 1:20 (Figure 2D).
# [2] = test system: A549 human lung carcinoma cells; assay: Live-cell imaging of the aptamer-modulated split GFP response to intracellular ATP; format: cell-based; settings: cells treated with ssAPC/ipGFP1-9 and Oligomycin A, compared to untreated controls
# Protocol: A549 human lung carcinoma cells were obtained from the Korean Cell Line Bank (Seoul, South Korea). The cells were cultured at 37°C and 5% CO2 in DMEM containing 10% FBS (v/v) and penicillin/streptomycin (Thermo Fisher Scientific, Waltham, MA, USA). A549 cells were seeded at a density of 1 × 10^4 cells/well in 96-well cell culture black plates (Greiner Bio One, Kremsmünster, Austria). After 24 h, the cells were transfected with naïve GFP, ipGFP1-9, and aptamer-peptide complexes using Lipofectamine 3000 (Thermo Fisher Scientific, Waltham, MA, USA) according to the manufacturer's instructions. The cells were imaged using the Cytation 7 Cell Imaging Multi-Mode Reader (BioTek Instruments, Winooski, VT, USA) with excitation/emission wavelengths of 488/525 nm for 24 h under cultivation conditions with 5% CO2 at 37°C. Images were analyzed using ImageJ software (https://imagej.nih.gov).
# For starvation experiments, A549 cells were seeded at a density of 1 × 10^6 cells/dish in 100 mm^2 cell culture dishes. After incubation for 24 h, the medium was changed to DMEM without glucose. […] Intracellular ATP concentrations were measured using an ATP assay kit (Abcam, Cambridge, MA, USA) according to the manufacturer's instructions.
# Finally, we assessed the functionality of aptamer-modulated split GFP to respond to intracellular ATP levels via the reassembly within cells. […]
Compound,fluorescence recovery of ssAPC/ipGFP1-9 assembly by nucleotide (specificity) [1],intensity of green fluorescence of ssAPC/ipGFP1-9 after ATP depletion [2]
Nc1nc2c(ncn2[C@@H]2O[C@H](COP(=O)(O)OP(=O)(O)OP(=O)(O)O)[C@@H](O)[C@H]2O)c(=O)[nH]1 [GTP],minimal response,
Nc1ccn([C@@H]2O[C@H](COP(=O)(O)OP(=O)(O)OP(=O)(O)O)[C@@H](O)[C@H]2O)c(=O)n1 [CTP],minimal response,
Oligomycin A,,conspicuous decrease
Nc1ncnc2c1ncn2[C@@H]1O[C@H](COP(=O)(O)OP(=O)(O)OP(=O)(O)O)[C@@H](O)[C@H]1O [ATP],highly ATP-specific,
O=c1ccn([C@@H]2O[C@H](COP(=O)(O)OP(=O)(O)OP(=O)(O)O)[C@@H](O)[C@H]2O)c(=O)[nH]1 [UTP],minimal response,
